Measured values as given in patent publication US7411083B2, “Substituted acetic acid derivatives” (Wyeth, priority 2003, dated 2008).

Biological target: T1, recombinant human plasminogen activator inhibitor-1 (PAI-1) (Homo sapiens, UniProt P05121)
T1 construct: purchased Molecular Innovations, Royal Oak, Mich
Assay: Screening for PAI-1 inhibition (residual tPA activity, Spectrozyme-tPA chromogenic substrate)
Type: biochemical
Settings: test compound at 100 Um; pH 6.6 buffer, 140 nM PAI-1, 70 nM tPA
Description: Screening for PAI-1 inhibition. Test compounds are dissolved in DMSO at a final concentration of 10 Mm, then diluted 100× in physiologic buffer. The inhibitory assay is initiated by the addition of the test compound (1-100 μM final concentration, maximum DMSO concentration of 0.2%) in a Ph 6.6 buffer containing 140 Nm recombinant human plasminogen activator inhibitor-1 (PAI-1; Molecular Innovations, Royal Oak, Mich.). Following a 1 hour incubation at room temperature, 70 Nm of recombinant human tissue plasminogen activator (Tpa) is added, and the combination of the test compound, PAI-1 and Tpa is incubated for an additional 30 minutes. Following the second incubation, Spectrozyme-Tpa (American Diagnostica, Greenwich, Conn.), a chromogenic substrate for Tpa, is added and absorbance read at 405 nm at 0 and 60 minutes. Relative PAI-1 inhibition is equal to the residual Tpa activity in the presence of the test compounds and PAI-1. Control treatments include the complete inhibition of Tpa by PAI-1 at the molar ratio employed (2:1), and the absence of any effect of the test compound on Tpa alone.

T1 sequence (P05121 24-402): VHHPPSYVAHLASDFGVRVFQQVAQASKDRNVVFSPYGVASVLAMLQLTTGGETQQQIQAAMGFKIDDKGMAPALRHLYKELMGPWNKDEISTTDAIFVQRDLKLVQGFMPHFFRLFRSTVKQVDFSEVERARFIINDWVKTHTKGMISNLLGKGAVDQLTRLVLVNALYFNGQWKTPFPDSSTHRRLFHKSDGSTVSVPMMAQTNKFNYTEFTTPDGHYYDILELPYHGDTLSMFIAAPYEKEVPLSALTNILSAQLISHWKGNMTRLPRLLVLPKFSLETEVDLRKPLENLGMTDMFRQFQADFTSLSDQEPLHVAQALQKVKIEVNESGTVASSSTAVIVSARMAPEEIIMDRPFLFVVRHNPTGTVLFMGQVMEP

Row | Structure (SMILES) | inhibition at 100 µM
1 | O=C(O)CO/N=C/c1cn(Cc2ccccc2)c2ccc(OCc3cccc(C(F)(F)F)c3)cc12 [Compound 24, ({[(1E)-(1-benzyl-5-{[3-(trifluoromethyl)benzyl]oxy}-1H-indol-3-yl)methylidene]amino}oxy)acetic acid] | 79%
2 | O=C(O)CO/N=C/c1cccc(-c2ccc(OCc3ccc(Cl)c(Cl)c3)cc2)c1 [Compound 83, {[((1E)-{4′-[(3,4-dichlorobenzyl)oxy]-1,1′-biphenyl-3-yl}methylidene)amino]oxy}acetic acid] | 57%
3 | O=C(O)CO/N=C/c1ccc(-c2cccc(OCc3ccc(Cl)cc3)c2)cc1 [Compound 95, {[((1E)-{3′-[(4-chlorobenzyl)oxy]-1,1′-biphenyl-4-yl}methylidene)amino]oxy}acetic acid] | 27%
4 | O=C(O)CO/N=C/c1cc(OCc2ccc(C(F)(F)F)cc2)ccc1OCc1ccc(C(F)(F)F)cc1 [Compound 154, ({[(1E)-(2,5-bis{[4-(trifluoromethyl)benzyl]oxy}phenyl)methylidene]amino}oxy)acetic acid] | 91%
5 | O=C(O)CO/N=C/c1ccc(-c2ccc(OCc3c(Cl)cccc3Cl)cc2)cc1 [Compound 111, {[((1E)-{4′-[(2,6-dichlorobenzyl)oxy]-1,1′-biphenyl-4-yl}methylidene)amino]oxy}acetic acid] | 38%
6 | CC(C)Cc1ccc(OCC#Cc2cccc(/C=N/OCC(=O)O)c2)cc1 [Compound 173, {[((1E)-{3-[3-(4-isobutylphenoxy)prop-1-ynyl]phenyl}methylidene)amino]oxy}acetic acid] | 56%
7 | O=C(O)CO/N=C/c1cccc(-c2cccc(OCc3ccccc3)c2)c1 [Compound 64, [({(1E)-[3′-(benzyloxy)-1,1′-biphenyl-3-yl]methylidene}amino)oxy]acetic acid] | 92%
8 | C#CCn1cc(/C=N/OCC(=O)O)c2cc(OCc3ccc(C(C)(C)C)cc3)ccc21 [Compound 33, [({(1E)-[5-[(4-tert-butylbenzyl)oxy]-1-(2-propynyl)-1H-indol-3-yl]methylidene}amino)oxy]acetic acid] | 91%
9 | O=C(O)CO/N=C/c1cc(OCc2ccc(F)c(F)c2)ccc1OCc1ccc(F)c(F)c1 [Compound 161, {[((1E)-{2,5-bis[(3,4-difluorobenzyl)oxy]phenyl}methylidene)amino]oxy}acetic acid] | 92%
10 | Cc1cccc(COc2ccc3c(c2)c(/C=N/OCC(=O)O)cn3Cc2ccccc2)c1 [Compound 27, {[((1E)-{1-benzyl-5-[(3-methylbenzyl)oxy]-1H-indol-3-yl}methylidene)amino]oxy}acetic acid] | 99%
11 | O=C(O)CO/N=C/c1cc(OCc2ccc(F)c(F)c2)cc(OCc2ccc(F)c(F)c2)c1 [Compound 151, {[((1E)-{3,5-bis[(3,4-difluorobenzyl)oxy]phenyl}methylidene)amino]oxy}acetic acid] | 88%
12 | CC(C)(C)c1ccc(COc2ccc3c(c2)c(/C=N/OCC(=O)O)cn3Cc2ccccc2)cc1 [Compound 6, {[((1E)-{1-benzyl-5-[(4-tert-butylbenzyl)oxy]-1H-indol-3-yl}methylidene)amino]oxy}acetic acid] | 68%
13 | O=C(O)CO/N=C/c1cccc(-c2cccc(OCc3cccc(Cl)c3)c2)c1 [Compound 63, {[((1E)-{3′-[(3-chlorobenzyl)oxy]-1,1′-biphenyl-3-yl}methylidene)amino]oxy}acetic acid] | 91%
14 | O=C(O)CO/N=C/c1cccc(OCc2ccc(F)cc2)c1OCc1ccc(F)cc1 [Compound 133, {[((1E)-{2,3-bis[(4-fluorobenzyl)oxy]phenyl}methylidene)amino]oxy}acetic acid] | 20%
15 | O=C(O)CO/N=C/c1cccc(-c2cccc(OCc3ccc4ccccc4c3)c2)c1 [Compound 69, [({(1E)-[3′-(2-naphthylmethoxy)-1,1′-biphenyl-3-yl]methylidene}amino)oxy]acetic acid] | 53%
16 | CC(C)(C)c1ccc(COc2cccc(-c3cccc(/C=N/OCC(=O)O)c3)c2)cc1 [Compound 59, {[((1E)-{3′-[(4-tert-butylbenzyl)oxy]-1,1′-biphenyl-3-yl}methylidene)amino]oxy}acetic acid] | 63%
17 | CC(C)(C)c1ccc(OCC#Cc2cccc(/C=N/OCC(=O)O)c2)cc1 [Compound 168, {[((1E)-{3-[3-(4-tert-butylphenoxy)prop-1-ynyl]phenyl}methylidene)amino]oxy}acetic acid] | 52%
18 | O=C(O)CO/N=C/c1c[nH]c2ccc(OCc3ccccc3Cl)cc12 [Compound 30, {[((1E)-{5-[(2-chlorobenzyl)oxy]-1H-indol-3-yl}methylidene)amino]oxy}acetic acid] | 11%

Row | Structure (SMILES) | inhibition at 100 µM
19 | O=C(O)CO/N=C/c1cccc(-c2cccc(OCc3c(Cl)cccc3Cl)c2)c1 [Compound 72, {[((1E)-{3′-[(2,6-dichlorobenzyl)oxy]-1,1′-biphenyl-3-yl}methylidene)amino]oxy}acetic acid] | 88%
20 | CCn1cc(/C=N/OCC(=O)O)c2cc(OCc3cccc(C(F)(F)F)c3)ccc21 [Compound 23, ({[(1E)-(1-ethyl-5-{[3-(trifluoromethyl)benzyl]oxy}-1H-indol-3-yl)methylidene]amino}oxy)acetic acid] | 56%
21 | O=C(O)CO/N=C/c1cccc(-c2ccc(OCc3cccc(Cl)c3)cc2)c1 [Compound 78, {[((1E)-{4′-[(3-chlorobenzyl)oxy]-1,1′-biphenyl-3-yl}methylidene)amino]oxy}acetic acid] | 23%
22 | O=C(O)CO/N=C/c1ccc(-c2cccc(OCc3cc(C(F)(F)F)cc(C(F)(F)F)c3)c2)cc1 [Compound 90, ({[(1E)-(3′-{[3,5-bis(trifluoromethyl)benzyl]oxy}-1,1′-biphenyl-4-yl)methylidene]amino}oxy)acetic acid] | 30%
23 | O=C(O)CO/N=C/c1ccc(OCc2ccc(F)cc2)cc1OCc1ccc(F)cc1 [Compound 123, {[((1E)-{2,4-bis[(4-fluorobenzyl)oxy]phenyl}methylidene)amino]oxy}acetic acid] | 72%
24 | O=C(O)CO/N=C/c1ccc(-c2cccc(OCc3cccc(C(F)(F)F)c3)c2)cc1 [Compound 94, ({[(1E)-(3′-{[3-(trifluoromethyl)benzyl]oxy}-1,1′-biphenyl-4-yl)methylidene]amino}oxy)acetic acid] | 74%
25 | O=C(O)CO/N=C/c1cccc(-c2ccc(OCc3cccc(Br)c3)cc2)c1 [Compound 77, {[((1E)-{4′-[(3-bromobenzyl)oxy]-1,1′-biphenyl-3-yl}methylidene)amino]oxy}acetic acid] | 85%
26 | O=C(O)CO/N=C/c1ccc(-c2cccc(OCc3c(Cl)cccc3Cl)c2)cc1 [Compound 101, {[((1E)-{3′-[(2,6-dichlorobenzyl)oxy]-1,1′-biphenyl-4-yl}methylidene)amino]oxy}acetic acid] | 10%
27 | Cn1cc(/C=N/OCC(=O)O)c2cc(OCc3ccc(C(C)(C)C)cc3)ccc21 [Compound 34, {[((1E)-{5-[(4-tert-butylbenzyl)oxy]-1-methyl-1H-indol-3-yl}methylidene)amino]oxy}acetic acid] | 88%
28 | O=C(O)CO/N=C/c1cccc(-c2ccc(OCc3c(Cl)cccc3Cl)cc2)c1 [Compound 87, {[((1E)-{4′-[(2,6-dichlorobenzyl)oxy]-1,1′-biphenyl-3-yl}methylidene)amino]oxy}acetic acid] | 85%
29 | C#CCn1cc(/C=N/OCC(=O)O)c2cc(OCc3cc(C(F)(F)F)cc(C(F)(F)F)c3)ccc21 [Compound 35, [({(1E)-[5-{[3,5-bis(trifluoromethyl)benzyl]oxy}-1-(2-propynyl)-1H-indol-3-yl]methylidene}amino)oxy]acetic acid] | 44%
30 | CC(C)(C)c1ccc(OCC#Cc2ccc(/C=N/OCC(=O)O)cc2)cc1 [Compound 162, {[((1E)-{4-[3-(4-tert-butylphenoxy)prop-1-ynyl]phenyl}methylidene)amino]oxy}acetic acid] | 51%
31 | O=C(O)CO/N=C/c1cc(OCc2cccc(Br)c2)cc(OCc2cccc(Br)c2)c1 [Compound 147, {[((1E)-{3,5-bis[(3-bromobenzyl)oxy]phenyl}methylidene)amino]oxy}acetic acid] | 87%
32 | O=C(O)CO/N=C/c1cccc(-c2ccc(OCc3ccc(Br)cc3)cc2)c1 [Compound 75, {[((1E)-{4′-[(4-bromobenzyl)oxy]-1,1′-biphenyl-3-yl}methylidene)amino]oxy}acetic acid] | 75%
33 | O=C(O)CO/N=C/c1cccc(OCc2ccc(Br)cc2)c1OCc1ccc(Br)cc1 [Compound 132, {[((1E)-{2,3-bis[(4-bromobenzyl)oxy]phenyl}methylidene)amino]oxy}acetic acid] | 65%
34 | Cc1ccc(COc2ccc(-c3ccc(/C=N/OCC(=O)O)cc3)cc2)cc1 [Compound 109, {[((1E)-{4′-[(4-methylbenzyl)oxy]-1,1′-biphenyl-4-yl}methylidene)amino]oxy}acetic acid] | 7%
35 | O=C(O)CO/N=C/c1cn(Cc2ccccc2)c2ccc(OCc3ccccc3Cl)cc12 [Compound 29, {[((1E)-{1-benzyl-5-[(2-chlorobenzyl)oxy]-1H-indol-3-yl}methylidene)amino]oxy}acetic acid] | 82%
